{"source": "paper PMC9854566", "about": "“Antiamnesic Effects of Feralolide Isolated from Aloe vera Resin Miller against Learning Impairments Induced in Mice” (Antioxidants, 2023)", "key": {"[1]": {"biological_target": "T1, butyrylcholinesterase (BuChE), equine (Equus caballus, UniProt P81908)", "T1 construct": "gene BCHE", "T1 sequence (P81908 whole entry)": "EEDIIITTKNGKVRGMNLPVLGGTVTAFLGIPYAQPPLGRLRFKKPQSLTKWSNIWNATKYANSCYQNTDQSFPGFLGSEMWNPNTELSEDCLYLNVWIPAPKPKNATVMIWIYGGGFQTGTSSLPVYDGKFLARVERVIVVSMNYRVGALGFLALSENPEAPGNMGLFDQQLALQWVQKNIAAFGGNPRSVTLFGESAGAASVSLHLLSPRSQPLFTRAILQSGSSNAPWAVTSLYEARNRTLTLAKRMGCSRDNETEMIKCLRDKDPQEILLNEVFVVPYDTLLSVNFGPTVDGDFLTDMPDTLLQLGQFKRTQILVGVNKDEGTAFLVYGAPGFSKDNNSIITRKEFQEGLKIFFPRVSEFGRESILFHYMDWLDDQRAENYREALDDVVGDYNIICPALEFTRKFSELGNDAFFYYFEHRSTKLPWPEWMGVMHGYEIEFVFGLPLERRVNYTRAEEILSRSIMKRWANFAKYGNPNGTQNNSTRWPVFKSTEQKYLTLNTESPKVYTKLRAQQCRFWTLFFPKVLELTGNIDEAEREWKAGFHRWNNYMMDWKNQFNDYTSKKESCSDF", "assay": "Ellman spectrophotometric assay ([…] nm)", "assay_type": "biochemical"}, "[2]": {"biological_target": "acetylcholinesterase (AChE), electric eel, type VI-S (Electrophorus electricus, UniProt O42275)", "sequence (O42275 24-633)": "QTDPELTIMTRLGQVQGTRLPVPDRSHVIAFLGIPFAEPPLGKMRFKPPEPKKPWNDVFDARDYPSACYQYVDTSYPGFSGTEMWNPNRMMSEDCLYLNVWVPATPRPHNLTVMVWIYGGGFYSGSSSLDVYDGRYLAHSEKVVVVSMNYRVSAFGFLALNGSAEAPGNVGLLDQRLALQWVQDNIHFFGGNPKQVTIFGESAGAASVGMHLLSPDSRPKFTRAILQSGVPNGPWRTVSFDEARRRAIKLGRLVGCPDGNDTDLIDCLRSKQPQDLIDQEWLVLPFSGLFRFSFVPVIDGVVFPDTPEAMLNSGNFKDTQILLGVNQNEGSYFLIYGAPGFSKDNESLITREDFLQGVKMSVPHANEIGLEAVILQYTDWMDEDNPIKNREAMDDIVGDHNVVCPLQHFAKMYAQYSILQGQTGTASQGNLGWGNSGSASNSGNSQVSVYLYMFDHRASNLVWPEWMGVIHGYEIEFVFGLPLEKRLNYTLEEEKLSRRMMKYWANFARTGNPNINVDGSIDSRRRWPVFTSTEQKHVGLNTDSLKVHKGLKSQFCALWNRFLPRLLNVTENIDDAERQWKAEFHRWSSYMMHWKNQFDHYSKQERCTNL", "assay": "Ellman spectrophotometric assay ([…] nm)", "assay_type": "biochemical"}}, "data": [{"compound": "CC(=O)c1c(O)cc(O)cc1C[C@@H]1Cc2cc(O)cc(O)c2C(=O)O1", "note": "[feralolide]", "values": [{"measurement": "IC50", "setting": "[1]", "value": 151, "unit": "µM"}, {"measurement": "IC50", "setting": "[2]", "value": 160, "unit": "µM"}]}]}
